Reference: US7704995B2 (Exelixis, Inc., priority 2003, dated 2010)

target: T1, Chk1 (Homo sapiens, UniProt O14757); assay: Chk1 kinase assay: incorporation of γ-33P ATP into immobilized myelin basic protein; assay type: biochemical; details: Table 11, Chk1 only; class symbols A-D; read-out: Chk1 IC50
T1 construct: purchased Upstate Biotechnology
T1 sequence (O14757 1-476): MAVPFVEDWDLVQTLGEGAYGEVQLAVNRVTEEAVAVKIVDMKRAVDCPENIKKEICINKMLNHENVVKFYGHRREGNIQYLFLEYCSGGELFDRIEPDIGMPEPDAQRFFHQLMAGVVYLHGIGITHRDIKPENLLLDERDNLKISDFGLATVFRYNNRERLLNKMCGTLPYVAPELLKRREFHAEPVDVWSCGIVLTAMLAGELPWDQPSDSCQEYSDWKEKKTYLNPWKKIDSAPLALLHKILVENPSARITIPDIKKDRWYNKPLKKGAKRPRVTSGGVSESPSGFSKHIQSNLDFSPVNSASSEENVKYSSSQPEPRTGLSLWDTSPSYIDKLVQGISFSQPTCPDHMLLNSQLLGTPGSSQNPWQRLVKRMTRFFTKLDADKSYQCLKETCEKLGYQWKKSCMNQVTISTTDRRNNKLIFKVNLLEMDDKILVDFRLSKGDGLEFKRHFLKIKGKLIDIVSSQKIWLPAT
Summary of the method: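 Incorporation of γ-33P into myelin basic protein coated on plates was scintillation-counted after 1 h at room temperature, duplicate points. Unlabeled ATP was 10 μM with 10 nM Chk1, 30 μM with 20 nM Chk2; buffer Hepes pH 7.6, MgCl2, DTT, 1% DMSO. Output IC50, optionally converted to Ki.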

SMILES | IC50 [nM]
CN1CC[C@H](NC(=O)c2nc(-c3cccc(C(=O)N[C@@H]4c5ccccc5C[C@@H]4O)c3)cnc2N)C1 [Example 805, 3-amino-6-[3-({[(1R,2S)-2-hydroxy-2,3-dihydro-1H-inden-1-yl]amino}carbonyl)phenyl]-N-[(3S)-1-methylpyrrolidin-3-yl]pyrazine-2-carboxamide] | 50 to 1000
Nc1ncc(-c2cccc(CN[C@@H]3c4ccccc4C[C@@H]3O)c2)nc1C(=O)N[C@H]1CCNC1 [Example 806, 3-amino-6-[3-({[(1R,2S)-2-hydroxy-2,3-dihydro-1H-inden-1-yl]amino}methyl)phenyl]-N-[(3S)-pyrrolidin-3-yl]pyrazine-2-carboxamide] | < 50
Nc1ncc(-c2cccc(C(=O)N[C@@H]3c4ccccc4C[C@@H]3O)c2)nc1C(=O)N[C@H]1CCCNC1 [Example 807, 3-amino-6-[3-({[(1R,2S)-2-hydroxy-2,3-dihydro-1H-inden-1-yl]amino}carbonyl)phenyl]-N-[(3S)-piperidin-3-yl]pyrazine-2-carboxamide] | < 50
Nc1ncc(-c2cccc(CN[C@H]3CCCc4ccccc43)c2)nc1C(=O)N[C@H]1CCNC1 [Example 808, 3-amino-N-[(3S)pyrrolidin-3-yl]-6-(3-{[(1S)-1,2,3,4-tetrahydronaphthalen-1-ylamino]methyl}phenyl)pyrazine-2-carboxamide] | < 50
Nc1ncc(-c2cccc(NC(=O)Cc3ccc(Cl)cc3Cl)c2)nc1-c1nnc([C@H]2CCCNC2)[nH]1 [Example 809, N-[3-(5-amino-6-{5-[(3S)-piperidin-3-yl]-4H-1,2,4-triazol-3-yl}pyrazin-2-yl)phenyl]-2-(2,4-dichlorophenyl)acetamide] | < 50
CC(C)(C)OC(=O)N1CC[C@H](NC(=O)c2nc(-c3cccc(S(=O)(=O)N[C@@H]4CCc5ccccc54)c3)cnc2N)C1 [Example 810, 1,1-dimethylethyl (3S)-3-({[3-amino-6-(3-{[(1R)-2,3-dihydro-1H-inden-1-ylamino]sulfonyl}phenyl)pyrazin-2-yl]carbonyl}amino)pyrrolidine-1-carboxylate] | ≥ 10000
Nc1ncc(-c2cccc(O)c2)nc1C(=O)N[C@H]1CCNC1 [Example 811, 3-amino-6-(3-hydroxyphenyl)-N-[(3S)-pyrrolidin-3-yl]pyrazine-2-carboxamide] | 50 to 1000
Nc1ncc(-c2cccc(S(=O)(=O)N[C@@H]3CCc4ccccc43)c2)nc1C(=O)N[C@H]1CCNC1 [Example 812, 3-amino-6-(3-{[(1R)-2,3-dihydro-1H-inden-1-ylamino]sulfonyl}phenyl)-N-[(3S)-pyrrolidin-3-yl]pyrazine-2-carboxamide] | 50 to 1000
Nc1ncc(-c2cccc(C(=O)N[C@H]3CCc4ccccc43)c2)nc1-c1ncn(-c2ccncc2)n1 [Example 813, 3-[5-amino-6-(1-pyridin-4-yl-1H-1,2,4-triazol-3-yl)pyrazin-2-yl]-N-[(1S)-2,3-dihydro-1H-inden-1-yl]benzamide] | 1000 to 10000
Nc1ncc(-c2cccc(C(=O)NCc3cc(F)c(F)c(F)c3)c2)nc1C(=O)N[C@H]1CCNC1 [Example 814, 3-amino-N-[(3S)-pyrrolidin-3-yl]-6-[3-({[(3,4,5-trifluorophenyl)methyl]amino}carbonyl)phenyl]pyrazine-2-carboxamide] | < 50
Nc1ncc(-c2cccc(C(=O)NCc3c(F)ccc(F)c3F)c2)nc1C(=O)N[C@H]1CCNC1 [Example 815, 3-amino-N-[(3S)-pyrrolidin-3-yl]-6-[3-({[(2,3,6-trifluorophenyl)methyl]amino}carbonyl)phenyl]pyrazine-2-carboxamide] | 50 to 1000
Nc1ncc(-c2cccc(C(=O)NCc3cc(F)cc(F)c3F)c2)nc1C(=O)N[C@H]1CCNC1 [Example 816, 3-amino-N-[(3S)-pyrrolidin-3-yl]-6-[3-({[(2,3,5-trifluorophenyl)methyl]amino}carbonyl)phenyl]pyrazine-2-carboxamide] | 50 to 1000
Nc1ncc(-c2cccc(C(=O)NCc3ccc(F)c(Br)c3)c2)nc1C(=O)N[C@H]1CCNC1 [Example 817, 3-amino-6-[3-({[(3-bromo-4-fluorophenyl)methyl]amino}carbonyl)phenyl]-N-[(3S)-pyrrolidin-3-yl]pyrazine-2-carboxamide] | < 50
CN1CCCC(c2n[nH]c(-c3nc(-c4cccc(C(=O)NCc5c(F)cccc5Cl)c4)cnc3N)n2)C1 (stereo not shown) [Example 818, 3-{5-amino-6-[3-(1-methylpiperidin-3-yl)-1H-1,2,4-triazol-5-yl]pyrazin-2-yl}-N-[(2-chloro-6-fluorophenyl)methyl]benzamide] | 1000 to 10000
Nc1ncc(-c2cccc(CN[C@H]3CCc4ccccc43)c2)nc1C(=O)NC1CN2CCC1CC2 (stereo partly drawn) [Example 819, 3-amino-N-1-azabicyclo[2.2.2]oct-3-yl-6-(3-{[(1S)-2,3-dihydro-1H-inden-1-ylamino]methyl}phenyl)pyrazine-2-carboxamide] | 50 to 1000
Nc1ncc(-c2cccc(C(=O)NCc3ccc(Cl)cc3F)c2)nc1-c1nc([C@H]2CCCNC2)n[nH]1 [Example 820, 3-(5-amino-6-{3-[(3S)-piperidin-3-yl]-1H-1,2,4-triazol-5-yl}pyrazin-2-yl)-N-[(4-chloro-2-fluorophenyl)methyl]benzamide] | < 50
Nc1ncc(-c2cccc(C(=O)NCc3ccccc3Cl)c2)nc1-c1nc([C@H]2CCCNC2)n[nH]1 [Example 821, 3-(5-amino-6-{3-[(3S)-piperidin-3-yl]-1H-1,2,4-triazol-5-yl}pyrazin-2-yl)-N-[(2-chlorophenyl)methyl]benzamide] | < 50
CC(C)(C)OC(=O)N1CC[C@H](NC(=O)c2nc(-c3cccc(C(=O)NCc4ccc(Cl)cc4Cl)c3)cnc2N)C1 [Example 822, 1,1-dimethylethyl (3S)-3-[({3-amino-6-[3-({[(2,4-dichlorophenyl)methyl]amino}carbonyl)phenyl]pyrazin-2-yl}carbonyl)amino]pyrrolidine-1-carboxylate] | 1000 to 10000
CC(C)(C)OC(=O)N1CC[C@H](NC(=O)c2nc(-c3cccc(C(=O)NCc4ccc(Cl)c(Cl)c4)c3)cnc2N)C1 [Example 823, 1,1-dimethylethyl (3S)-3-[({3-amino-6-[3-({[(3,4-dichlorophenyl)methyl]amino}carbonyl)phenyl]pyrazin-2-yl}carbonyl)amino]pyrrolidine-1-carboxylate] | 1000 to 10000
Nc1ncc(-c2cccc(CN[C@H]3CCc4ccccc43)c2)nc1-c1nc(C2CCCNC2)cs1 (stereo partly drawn) [Example 824, 5-(3-{[(1S)-2,3-dihydro-1H-inden-1-ylamino]methyl}phenyl)-3-(4-piperidin-3-yl-1,3-thiazol-2-yl)pyrazin-2-amine] | ≥ 10000
Nc1ncc(-c2cccc(C(=O)NCc3ccc(Cl)cc3Cl)c2)nc1C(=O)N[C@H]1CCNC1 [Example 825, 3-amino-6-[3-({[(2,4-dichlorophenyl)methyl]amino}carbonyl)phenyl]-N-[(3S)-pyrrolidin-3-yl]pyrazine-2-carboxamide] | < 50
Nc1ncc(-c2cccc(C(=O)NCc3ccc(Cl)c(Cl)c3)c2)nc1C(=O)N[C@H]1CCNC1 [Example 826, 3-amino-6-[3-({[(3,4-dichlorophenyl)methyl]amino}carbonyl)phenyl]-N-[(3S)-pyrrolidin-3-yl]pyrazine-2-carboxamide] | < 50
Nc1ncc(-c2cccc(C(=O)NCc3c(F)cccc3F)c2)nc1-c1nc([C@H]2CCCNC2)n[nH]1 [Example 827, 3-(5-amino-6-{3-[(3S)-piperidin-3-yl]-1H-1,2,4-triazol-5-yl}pyrazin-2-yl)-N-[(2,6-difluorophenyl)methyl]benzamide] | 50 to 1000
Nc1ncc(-c2cccc(C(=O)NCc3c(F)cccc3Cl)c2)nc1-c1nc([C@H]2CCCNC2)n[nH]1 [Example 828, 3-(5-amino-6-{3-[(3S)-piperidin-3-yl]-1H-1,2,4-triazol-5-yl}pyrazin-2-yl)-N-[(2-chloro-6-fluorophenyl)methyl]benzamide] | 50 to 1000
Nc1ncc(-c2cccc(C(=O)NCc3cc(Cl)ccc3Cl)c2)nc1-c1nc([C@H]2CCCNC2)n[nH]1 [Example 829, 3-(5-amino-6-{3-[(3S)-piperidin-3-yl]-1H-1,2,4-triazol-5-yl}pyrazin-2-yl)-N-[(2,5-dichlorophenyl)methyl]benzamide] | 50 to 1000
Nc1ncc(-c2cccc(C(=O)NCc3ccc(Cl)c(Cl)c3)c2)nc1-c1nc([C@H]2CCCNC2)n[nH]1 [Example 830, 3-(5-amino-6-{3-[(3S)-piperidin-3-yl]-1H-1,2,4-triazol-5-yl}pyrazin-2-yl)-N-[(3,4-dichlorophenyl)methyl]benzamide] | < 50
COc1ccc(CNC(=O)c2cccc(-c3cnc(N)c(C(=O)N[C@H]4CCCNC4)n3)c2)cc1 [Example 831, 3-amino-6-{3-[({[4-(methyloxy)phenyl]methyl}amino)carbonyl]phenyl}-N-[(3S)-piperidin-3-yl]pyrazine-2-carboxamide] | < 50
Nc1ncc(-c2cccc(C(=O)NCc3ccc(Cl)cc3Cl)c2)nc1C(=O)N[C@H]1CCCNC1 [Example 832, 3-amino-6-[3-({[(2,4-dichlorophenyl)methyl]amino}carbonyl)phenyl]-N-[(3S)-piperidin-3-yl]pyrazine-2-carboxamide] | < 50
